From the supplement of paper PMC12370961

Key:
Test in all cases: differential drug sensitivity score (dDSS) relative to sarcoma reference cohort mean DSS (DSS units (0-100 scale difference)); higher = more selective sensitivity than reference sarcomas
Conditions in all cases: exposure time: 72 h; concentration range: 10-10000 nM
ES-ZH004 = test system: ES-ZH004 (patient-derived Ewing sarcoma tumoroid)
Method: (§1)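 Drug response profiling of patient-derived Ewing sarcoma and CIC::DUX4 sarcoma tumoroid models (or cells tested directly after isolation from the tumor, 'direct'). The DSS is the normalised AUC (0-100); dDSS is the sample DSS minus the mean DSS of a 34-sarcoma reference cohort profiled in the same lab.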

CDS-ZH001 = test system: CDS-ZH001 (patient-derived CIC-DUX4 sarcoma tumoroid)
Method: as §1

ES-ZH001 = test system: ES-ZH001 (patient-derived Ewing sarcoma tumoroid)
Method: as §1

ES-ZH016 direct = test system: ES-ZH016 direct (Ewing sarcoma cells right after isolation)
Method: as §1

ES-ZH007 = test system: ES-ZH007 (patient-derived Ewing sarcoma tumoroid)
Method: as §1

CDS-ZH002 = test system: CDS-ZH002 (patient-derived CIC-DUX4 sarcoma tumoroid)
Method: as §1

CDS-ZH001-2 = test system: CDS-ZH001-2 (patient-derived CIC-DUX4 sarcoma tumoroid)
Method: as §1

CDS-ZH002 direct = test system: CDS-ZH002 direct (CIC-DUX4 sarcoma cells right after isolation)
Method: as §1

ES-ZH008 = test system: ES-ZH008 (patient-derived Ewing sarcoma tumoroid)
Method: as §1

ES-ZH009 = test system: ES-ZH009 (patient-derived Ewing sarcoma tumoroid)
Method: as §1

ES-ZH016 = test system: ES-ZH016 (patient-derived Ewing sarcoma tumoroid)
Method: as §1

CDS-ZH003 = test system: CDS-ZH003 (patient-derived CIC-DUX4 sarcoma tumoroid)
Method: as §1

ES-ZH002 = test system: ES-ZH002 (patient-derived Ewing sarcoma tumoroid)
Method: as §1

SMILES	differential drug sensitivity score (ES-ZH004)	differential drug sensitivity score (CDS-ZH001)	differential drug sensitivity score (ES-ZH001)	differential drug sensitivity score (ES-ZH016 direct)	differential drug sensitivity score (ES-ZH007)	differential drug sensitivity score (CDS-ZH002)	differential drug sensitivity score (CDS-ZH001-2)	differential drug sensitivity score (CDS-ZH002 direct)	differential drug sensitivity score (ES-ZH008)	differential drug sensitivity score (ES-ZH009)	differential drug sensitivity score (ES-ZH016)	differential drug sensitivity score (CDS-ZH003)	differential drug sensitivity score (ES-ZH002)
CCN(CC)CCNC(=O)c1c(C)[nH]c(/C=C2\C(=O)Nc3ccc(F)cc32)c1C [Sunitinib]	2.3	3.2	7.6	6.4	2.2	-1.4	3.9	-2	-0.8	1.7	0.7	-3.3	8.5
CCNC(=O)c1noc(-c2cc(C(C)C)c(O)cc2O)c1-c1ccc(CN2CCOCC2)cc1 [Luminespib]	1.2	4.1	3.5	8.1	3.7	-9.4	2.1	-3.8	7.8	6.6	2.2	2.7	10.5
CCN(CC)CCCC(C)Nc1ccnc2cc(Cl)ccc12 (stereo not drawn) [Chloroquine]	3	0.3	-3.8		2.8	5.3	4.7		1.4	-2		-3.8	-0.6
COc1cc(NS(C)(=O)=O)ccc1Nc1c2ccccc2nc2ccccc12 [Amsacrine]	8.8	-1.9	12.5	13.3	8.9	1.6	3	-4.1	16.3	8.4	13.7	-12.8	27.1
CN1CC[C@H](c2c(O)cc(O)c3c(=O)cc(-c4ccccc4Cl)oc23)[C@H](O)C1 [Alvocidib]	6.6	8.5	2.6	3.7	7.8	5.8	5.7	8.9	6.3	9	6.1	8	7.1
Cn1cc(C2=C(c3ccc(Cl)cc3Cl)C(=O)NC2=O)c2ccccc21	2.1	-1.5	6.9	0.4	0.1	-1.5	-1.5	-1.5	3.8	-1.5	-1.5	-6.5	5.1
O=C(NCc1cccc(O)c1)Nc1nc(-c2ccncc2)cs1 [RKI1447]	-0.2	-0.6	-1.2	-1	-1.1	-1	-1	-1.2	-1.2	4.8	0.4	-0.9	6.9
CC[C@@H]1C(=O)N(C)c2cnc(Nc3ccc(C(=O)N[C@H]4CC[C@H](N5CCN(CC6CC6)CC5)CC4)cc3OC)nc2N1C(C)C [Volasertib]	0.5	-2.4	10.3	16.6	2.9	4	13.2	-3.8	4.5	16.1	8.9	-2.3	9.4
CC[C@@]1(O)C(=O)OCc2c1cc1n(c2=O)Cc2cc3c(CN(C)C)c(O)ccc3nc2-1 [Topotecan]	16.4	5.3	19.4	7.3	19.4	-2.7	3.4	-4.9	10.8	15.8	19.6	8	20.1
CN(NC(=O)CC(=O)NN(C)C(=S)c1ccccc1)C(=S)c1ccccc1 [Elesclomol]	40.9	-6	0.9	7.7	28.6	-4	2	-6	6.3	-0.7	-6	-5.7	18.6
Nc1nc(F)nc2c1ncn2[C@@H]1O[C@H](CO)[C@@H](O)[C@@H]1O [Fludarabine]	5.3	-3.2	4.6	11.5	3.9	-0.8	3.9	2.5	-1.1	-3.2	1.4	-2.8	8.7
N[C@@H]1CCCN(c2c(/C=C3\SC(=O)NC3=O)cccc2-c2ccccc2)C1 [AZD1208]	-0.8	8.2	-0.4	-2.9	-2.9	1.2	2	1.1	1.8	3.6	-2.9	13.6	0
O=P1(NCCCl)OCCCN1CCCl (stereo not drawn) [Ifosfamide]	5.5	-1	0.6	-1	-1	-1	-1	-1	1.6	-1	-1	-1	5.4
O=C1NC(=O)[C@@H](c2cn3c4c(cccc24)CCC3)[C@@H]1c1c[nH]c2ccccc12 [Tivantinib]	1	2.5	9.4	2.2	2.7	-3.1	-0.2	-1.2	-1.9	7.7	7.4	-3.8	9.4
Cc1ccc(Nc2nccc(N(C)c3ccc4c(C)n(C)nc4c3)n2)cc1S(N)(=O)=O [Pazopanib]	-2.9	-2.9	-2.9	17.4	-2.9	0.6	14.6	-1.4	-2.9	-2.9	-0.7	0.4	-2.9
Oc1ccc(/C=C/c2cc(O)cc(O)c2)cc1 [Resveratrol]	10.1	1.4	11.6	4.7	0.9	-2	0	0.1	13.8	7	4.4	-4.6	16.5

SMILES	differential drug sensitivity score (ES-ZH004)	differential drug sensitivity score (CDS-ZH001)	differential drug sensitivity score (ES-ZH001)	differential drug sensitivity score (ES-ZH016 direct)	differential drug sensitivity score (ES-ZH007)	differential drug sensitivity score (CDS-ZH002)	differential drug sensitivity score (CDS-ZH001-2)	differential drug sensitivity score (CDS-ZH002 direct)	differential drug sensitivity score (ES-ZH008)	differential drug sensitivity score (ES-ZH009)	differential drug sensitivity score (ES-ZH016)	differential drug sensitivity score (CDS-ZH003)	differential drug sensitivity score (ES-ZH002)
Nc1ccn([C@@H]2O[C@H](CO)[C@@H](O)[C@@H]2O)c(=O)n1 [Cytarabine]	4.4	-12.4	8.3	11.6	17	1.3	3.3	-8.5	22.9	-6.1	12.5	0.8	21.1
C=CCn1c(=O)c2cnc(Nc3ccc(N4CCN(C)CC4)cc3)nc2n1-c1cccc(C(C)(C)O)n1 [Adavosertib]	0.2	4.9	8.1	8.1	4	3	5.3	-2.6	7.6	10.9	2.8	4.9	12
COc1ccc(C2=N[C@@H](c3ccc(Cl)cc3)[C@@H](c3ccc(Cl)cc3)N2C(=O)N2CCNC(=O)C2)c(OC(C)C)c1 [Nutlin-3]	-4.6	-1.8	-4.6	14	-4.6	-1.3	8.4	1	1.4	-4.4	3.3	3.6	8
CC#CC(=O)N1CCC[C@H]1c1nc(-c2ccc(C(=O)Nc3ccccn3)cc2)c2c(N)nccn12 [Acalabrutinib]	11.2	-3.5	5.7	2.4	-3.5	-2.9	-2.5	-3.2	17.5	-3.5	-2.1	1.4	9.7
Cc1nn(C)c(COc2ccc(N3CCN(S(=O)(=O)N(C)C)CC3)cc2)c1-c1cccc2c(CCCOc3cccc4ccccc34)c(C(=O)O)n(CCN3CCOCC3)c12	-0.8	4.4	-0.8	-0.8	-0.8	-0.8	-0.8	-0.8	-0.8	-0.8	-0.8	0	-0.4
CNC(=O)c1ccccc1Sc1ccc2c(/C=C/c3ccccn3)n[nH]c2c1 [Axitinib]	-0.9	-0.9	-0.9	3.8	-0.9	-0.9	-0.8	-0.9	-0.9	0.4	-0.9	6	2.2
O=C(O)C(=O)O.[NH-][C@@H]1CCCC[C@H]1[NH-].[Pt+2] [Oxaliplatin]	0.2	2.2	-0.1	-5	1	5.9	5.9	7.7	2.9	-5	1.2	-4.8	-2
COc1cc2nccc(Oc3ccc(NC(=O)C4(C(=O)Nc5ccc(F)cc5)CC4)cc3)c2cc1OC [Cabozantinib]	5.9	-2.6	3.6	-2.6	-1	-2.6	-2.6	-2	1.7	-1.5	-2.4	-1.5	3.4
CCN1CCN(Cc2ccc(Nc3ncc(F)c(-c4cc(F)c5nc(C)n(C(C)C)c5c4)n3)nc2)CC1 [Abemaciclib]	10.4	-2.4	8.8	-2.7	5.7	-2.7	-2.7	2.2	10.7	6.4	1.5	-2.7	14.7
NS(=O)(=O)NCCNc1nonc1/C(=N/O)Nc1ccc(F)c(Br)c1 [Epacadostat]	0	-0.7	-0.7	-0.5	-0.7	-0.7	-0.7	-0.7	5.6	0	0.1	0.6	-0.2
CCn1cc(C(=O)O)c(=O)c2c(N)c(F)c(NC3CCCCC3)cc21	-0.9	-0.9	-0.9	7.2	-0.3	-0.9	-0.9		-0.9	3.3	-0.9	-0.9	-0.9
O=C(O)C1(C(=O)O)CCC1.[NH2-].[NH2-].[Pt+2] [Carboplatin]	0.8		-0.3	8.6	-0.9	-1.6	-1.6	-1.2	2.5	-1.6	1.7	-1.6	2.2
N.N.[Cl][Pt][Cl] [Cisplatin]	5.8		-1.1		3.9	-0.5		-2.4	2.9	-1.4			7.1
CC(C)(C)Cn1c(N)nc2ccc(-c3[nH]c(C(C)(C)C)nc3-c3ccc(F)cc3)nc21 [Ralimetinib]	-2.2	-2.9	-5.3		-4.3	4.9	6.3		-4.4	-3.2		13.4	0
COc1ccc(-c2nc(N3CCOCC3)c3sc(CN(C)c4ncc(C(=O)NO)cn4)cc3n2)cn1 [Fimepinostat]	8.6	1.5	5.9	8.8	10.6	-3.2	5.7		9.2	6.1	0.5	-0.5	6
Cc1c(-c2ccc(N3CCc4cccc(C(=O)Nc5nc6ccccc6s5)c4C3)nc2C(=O)O)cnn1CC12CC3CC(CC(C3)C1)C2				7.8				2.8		10.9	-9.5		
